US7838562B2, “Methods of inhibiting vascular permeability and apoptosis” (University of Connecticut, priority 2004, dated 2010)

Columns and labels:
[1] = test system: phospho-Akt; experiment: Western blot of Akt phosphorylation in HUVEC; type: cell-based, human; conditions: 5 minute stimulation
Source text: (§1) Endothelial cell morphogenesis, a phenomenon that requires endothelial cell migration, survival and adherens junction assembly, is mediated by the ligand-dependent activation of S1P1 and S1P3 receptors. […] The effects of FTY720-P and analogs on Akt and ERK phosphorylation in HUVEC were studied in a Western blot analysis. Confluent cultures of HUVEC cells were serum starved for two hours in 0.1% ffa-BSA M199 before treatments. Then, they were washed with ice-cold phosphate buffered saline (PBS) containing 1 mM sodium fluoride and 1 mM sodium orthovanadate and homogenized in radioimmunoprecipitation assay buffer (0.1% sodium dodecyl sulfate (SDS), 0.5% sodium deoxycholate, 1% NP-40, 1 mM sodium orthovanadate, 50 mM β-glycerophosphate and 1× protease inhibitor cocktail). Samples were centrifuged 10,000×g for 10 minutes, and protein concentrations of supernatants were determined by Bradford assay (BioRad Protein Dye Reagent). Equal amounts of protein were separated on a 10% polyacrylamide gel and blotted to a nitrocellulose membrane. Immunoblot analysis was performed using Phospho-Akt, Akt, phospho-ERK1/2 or ERK-1/2 antibodies.

[2] = test system: kinase activity present in HUVEC (sphingosine kinase); experiment: in vitro kinase assay with total cell extract from HUVEC; type: biochemical, human; conditions: HUVEC total cell extract; 100 μM FTY720 or AAL, 20 μM sphingosine; 30 minutes
Procedure: To confirm that FTY720 and (R)-AAL are phosphorylated by endothelial cells, an in vitro kinase assay was performed with both total cell extract and conditioned medium from HUVEC. […] Cells were scraped at 4° C. with 400 μl of 25 mM HEPES pH 7.5, […], 1× protease inhibitor mixture, and disrupted by brief sonication. Cellular homogenates were centrifuged for 10 minutes, 4° C. at 20,000×g. In the kinase assay, 300 μl of conditioned medium (derived from 5×10^5 cells for 3 hours of incubation) or 10 μg of total cell extract from HUVEC were used as a source of kinase activity. […] Lipids were extracted and samples were resuspended in 50 μl of chloroform. Lipids were resolved by TLC on Silica Gel G60 using 1-butanol/acetic acid/water (60/20/20 volume/volume) buffer and quantified with a PhosphorImager (Molecular Dynamics).

[3] = molecular target: T1, SK2 (Mus musculus, UniProt Q9JIA7); conditions: SK2-[…]T; 100 μM FTY720 or (R)-AAL, 20 μM sphingosine
T1 sequence (Q9JIA7 1-617): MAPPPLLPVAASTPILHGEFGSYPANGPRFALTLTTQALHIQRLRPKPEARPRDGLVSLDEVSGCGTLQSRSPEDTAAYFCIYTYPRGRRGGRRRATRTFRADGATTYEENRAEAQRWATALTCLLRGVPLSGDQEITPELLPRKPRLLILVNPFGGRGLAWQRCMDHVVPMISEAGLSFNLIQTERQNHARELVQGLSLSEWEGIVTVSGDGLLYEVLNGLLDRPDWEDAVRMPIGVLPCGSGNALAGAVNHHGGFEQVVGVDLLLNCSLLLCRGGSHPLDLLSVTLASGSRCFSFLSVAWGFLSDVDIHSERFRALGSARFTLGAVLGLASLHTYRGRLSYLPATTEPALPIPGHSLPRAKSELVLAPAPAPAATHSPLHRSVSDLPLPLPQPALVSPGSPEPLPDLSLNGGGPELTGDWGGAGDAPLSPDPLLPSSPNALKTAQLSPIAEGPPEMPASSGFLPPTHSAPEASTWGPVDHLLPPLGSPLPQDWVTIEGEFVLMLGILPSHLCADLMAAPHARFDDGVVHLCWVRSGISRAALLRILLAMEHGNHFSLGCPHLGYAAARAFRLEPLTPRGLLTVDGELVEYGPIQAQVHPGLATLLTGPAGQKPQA

[4] = test system: phospho-ERK-1/2; experiment: Western blot of ERK-1/2 phosphorylation in HUVEC; type: cell-based, human; conditions: 5 minute stimulation
Source text: as §1

[5] = test system: VE-cadherin; experiment: VE-cadherin localization by immunofluorescence in HUVEC; type: cell-based, human; conditions: 30 minutes; 10 nM (S1P 100 nM)
Procedure: The effects of FTY720-P and (R)-AFD on the localization of VE-cadherin were studied using immunofluorescence analysis. In this study, 2×10^5 cells were plated in 35 millimeter glass bottom petri dishes. Three days later, the cells were washed and serum starved for 3 hours before treatments. Then, the cells were washed with ice-cold PBS, fixed, and immunofluorescence analysis with VE-cadherin antibody was conducted (1 μg/ml Santa Cruz). The primary antibody staining was visualized with Rhodamine-conjugated goat anti-mouse (1:1000, Cappel) IgG. Confocal microscopy was conducted on a Zeiss LSM 510 laser-scanning confocal microscope. Rhodamine fluorescence was excited using a 543 nm Helium/Neon laser and emitted fluorescence was detected with a […] long-pass filter.

[6] = test system: VEGF-induced vascular permeability; experiment: mouse ear microvascular permeability assay (VEGF-induced); type: in vivo, FVB/N mice; conditions: mice, single oral administration (gavage, 50 μg) 5 hours prior
Procedure: The role of plasma borne FTY720-P or (R)-AFD in the regulation of vascular permeability was tested in vivo. In order to test this possibility, an in vivo vascular permeability model was used in FTY720, (R)-AFD or (S)-AAL-pretreated mice. […] Five hours post-gavage, animals were anesthetized with 2% Avertin™ (0.5 cc/20 g) and infused through the tail vein with 100 μl FITC-dextran (5 mg/ml, 165 kDa). Animals were placed on a warming table under a fluorescent dissecting microscope (Zeiss STV11, Zeiss, Inc.) and the central vessels in the ear were imaged. Control saline or mouse vascular endothelial growth factor (mVEGF, 10 ng/ml) was injected subdermally into the middle ear using a 30 gauge needle (30 μl). Ear vasculature was then imaged with fixed exposure times in a stationary position from 5 minutes to 120 minutes post-injection. Fluorescence images were then quantified using pixel-based threshold in ImageProPlus (Media Cybernetics, Inc.) and quantified.

[7] = test system: HUVEC; experiment: HUVEC migration (96 well chemotaxis microchamber)
[8] = molecular target: SK1 (Mus musculus, UniProt Q8CI15); conditions: SK1-293T; 20 μM sphingosine
SK1, sequence (Q8CI15 1-388 isoform Q8CI15-2): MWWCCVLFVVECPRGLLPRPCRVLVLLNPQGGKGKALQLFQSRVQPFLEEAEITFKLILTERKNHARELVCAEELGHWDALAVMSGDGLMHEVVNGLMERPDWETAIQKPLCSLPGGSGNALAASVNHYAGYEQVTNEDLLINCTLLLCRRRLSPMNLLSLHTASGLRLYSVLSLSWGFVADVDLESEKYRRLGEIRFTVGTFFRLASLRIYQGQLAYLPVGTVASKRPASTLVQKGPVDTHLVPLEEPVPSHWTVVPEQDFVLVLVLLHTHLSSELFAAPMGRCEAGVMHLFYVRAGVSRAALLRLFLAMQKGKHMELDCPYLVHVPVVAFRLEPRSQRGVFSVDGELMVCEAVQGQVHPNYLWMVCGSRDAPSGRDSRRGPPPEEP

specific activity (phosphorylation of the substrate) [8] [pmol/mg/min]	Compound	Akt phosphorylation (in words) [1]	specific activity (phosphorylation of the substrate) [2] [pmol/mg/min]	specific activity (phosphorylation of the substrate) [3] [pmol/min/mg]	ERK-1/2 phosphorylation (in words) [4]	VE-cadherin localization at cell-cell contact regions / translocation to adherens junctions [5]	inhibition of vascular permeability induced by VEGF [6]	migration induced by conditioned medium ([7]; compound incubated with HUVEC for 3 hours, conditioned medium used as chemoattractant)	induction of endothelial cell migration ([7]; compound used directly as chemoattractant, 4 hours)
–	CCCCCCCCc1ccc(CCC(N)(CO)CO)cc1 [FTY720, 2-amino-2-[2-(4-octaphenyl)ethyl]propane-1,3 diol, reference compound]	did not induce phospho-Akt or phospho-ERK-1/2 levels	3.85 ± 0.75	41.6	did not induce phospho-Akt or phospho-ERK-1/2 levels	did not induce VE-cadherin translocation to the adherens junctions	profoundly suppressed vascular permeability induced by VEGF	activated into potent chemoattractants for endothelial cells	Neither FTY720 nor its structural analog (R)-AAL induced endothelial cell migration
48.1	CCCCCCCCCCCCC/C=C/[C@@H](O)[C@@H](N)CO [sphingosine, Sphingosine]	–	75.7 ± 6	319.9	–	–	–	–	–
